Assay results reported in US9453026B2, “ACC inhibitors and uses thereof” (Gilead Apollo, Inc., priority 2011, dated 2016).
Like-named read-outs stand apart in the source and are kept apart here.

What was measured:
Type in all cases: cell-based
[1] = test system: C. albicans ATCC 90028; test: Anti-Fungal Activity Assay (broth microtiter MIC); conditions: 3 replicates, test compounds read at 48 h
Description: (§1) Compounds of the present invention were evaluated in an Anti-Fungal Activity Assay. An exemplary procedure for the assay, which measures the susceptibility of various Candida species to anti-fungal compounds, follows. Compounds to be tested (including fluconazole and amphotericin B) were dissolved in DMSO to obtain a solution having a concentration of 1 mg/mL. […] All species were grown from frozen stock by directly plating on to freshly prepared Sabouraud Dextrose agar (BD, Difco) and incubated overnight in ambient air at 35° C. for 24 h. A direct suspension was prepared in RPMI 1640+MOPS (Lonza, Biowhittaker) by taking individual colonies from the overnight cultures using sterile swabs soaked in sterile saline. The concentration of the suspension was determined using pre-determined standard curves. […] The original CLSI guidelines focused on reading Candida MICs after 48 h of incubation. As reading after only 24 h offers a clear advantage of patient care, QC limits are being established for all drugs at 24 h. That being said there are no known interpretive breakpoints for amphotericin B at 24 h and the current fluconazole interpretive breakpoints are based on a 48 h reading. The MIC breakpoints for the Pharmaron test compounds were recorded at 48 h, and for the soraphen the 24 h time-point was added. All MIC determinations were achieved by visually comparing the growth found in the antibiotic challenged wells to that of the growth control.

[2] = test system: C. krusei ATCC 6258; test: Anti-Fungal Activity Assay (broth microtiter MIC); conditions: 3 replicates, test compounds read at 48 h
Description: as §1

[3] = test system: C. parapsilosis ATCC 22019; test: Anti-Fungal Activity Assay (broth microtiter MIC); conditions: 3 replicates, test compounds read at 48 h
Description: as §1

[4] = test system: HepG2 cells; test: [14C] Acetate Incorporation HepG2 Cellular Assay; conditions: Hep-G2 cells, FIG. 7
Description: Compounds of the present invention were evaluated in a [^14C] Acetate Incorporation Assay. An exemplary procedure for the assay, which measures the incorporation of isotopically labeled acetate into fatty acids, follows. HepG2 cells were maintained in T-75 flasks containing DMEM supplemented with 2 mM 1-glutamine, penicillin G (100 units/ml), streptomycin 100 μg/ml with 10% FBS and incubated in a humidified incubator with 5% CO2 at 37° C. Cells were fed every 2-3 days. On Day 1. cells were seeded in 24 well plates at a density of 1.2×10^5 cells/ml/well with the growth medium. On Day 3 the medium was replaced with fresh medium containing 10% FBS. On Day 4 the medium was replaced with 0.5 ml of fresh medium containing test compound (in DMSO; final [DMSO] is 0.5%) and the cells were incubated at 37° C. for 1 hour. To one copy of plate, 4 ul of [2-^14C]acetate (56 mCi/mmol; 1 mCi/ml; PerkinElmer) was added and the cells were incubated at 37° C., 5% CO2 for 5 hrs. To a second copy of plate, 4 ul of cold acetate were added and the cells were incubated at 37° C., 5% CO2 for 5 hrs. This plate was used for protein concentration measurement. Medium was removed and placed in a 15 ml centrifuge tube (BD, Falcon/352096). Cells were rinsed with 1 ml PBS, then aspirated, and the rinse and aspiration steps were repeated. 0.5 ml of 0.1N NaOH were added to each well and let sit at RT to dissolve cell monolayer. The remaining cell suspension was pooled with medium. For the protein determination plate, an aliquot was removed for protein determination (25 ul). […] 5 ml petroleum ether was added per tube, shaken vigorously, centrifuged at 1000 rpm for 5 min, and 500 uL of the petroleum ether layer was transferred to tubes for Microbeta reading, then 2 ml Aquasol-2 were added to each tube, the tubes were shaken and counted with a Microbeta Liquid Scintillation Counter (Perkin Elmer).
The remaining petroleum ether layer was discarded and the aqueous phase reserved for fatty acid extractions. […] 2 ml of Aquasol-2 was added to each vial, and the vials were shaken and counted on a scintillation counter.

SMILES: COc1ccccc1[C@H](Cn1c(=O)n(C(C)(C)C(=O)O)c(=O)c2c(C)c(-c3ncco3)sc21)OC1CCOCC1 [I-181, 2-[1-[2-(2-methoxyphenyl)-2-(oxan-4-yloxy)ethyl]-5-methyl-6-(1,3-oxazol-2-yl)-2,4-dioxo-1H,2H,3H,4H-thieno[2,3-d]pyrimidin-3-yl]-2-methylpropanoic acid]
- MIC [1]: >64 µg/mL
- MIC ([1]; Candida albicans, ATCC90028, 48 h, read-out: MIC): > 64 µg/mL
- MIC [2]: >64 µg/mL
- MIC ([2]; Pichia kudriavzevii, ATCC6258, 48 h, read-out: MIC): > 64 µg/mL
- MIC [3]: >64 µg/mL
- MIC ([3]; Lodderomyces parapsilosis, ATCC22019, 48 h, read-out: MIC): > 64 µg/mL
- incorporation of isotopically labeled acetate into fatty acids [4]: inhibit incorporation of isotopically labeled acetate into fatty acids
